Reference: patent US20230398161A1 (priority 2020, published 2023)

Tests used:
[1] = test system: Escherichia coli (E. coli) strain ATCC 700928; experiment: Urinary tract infection model in C3H/OuJ mice, CK570: E. coli burden (CFU) in tissues; conditions: positive control, IV, all timepoints assessed
Method: The vehicle used in this study was 1×TBS.
C3H/OuJ female mice, aged approximately 8 weeks and weighing 21 to 24 grams, were used in this study. Mice were housed with 1 to 5 animals per cage and were provided food (5P76 Prolab isopro irradiated lab diet) and water ad libitum.
Mice were anesthetized with 1-4% isoflurane in oxygen for 2-3 minutes until a deep plane of anesthesia was achieved, confirmed by toe pinch reflex. Each mouse was then placed on a board, ventral side up, with the nose inserted into a nose cone supplying isoflurane. The lower abdomen was gently massaged to expel any urine in the bladder. […] For IV administration, mice were manually restrained in a restrainer device, and study treatment was administered via the lateral tail vein. A dose volume of 100 μL was used for IV injections. For IU administration, the same method was used as for the original administration of E. coli. A dose volume of 50 μL was used for IU administration.
All CFU data were log-transformed.

[2] = test system: 88 contemporaneous urinary tract infection (UTI) isolates; type: cell-based, E. coli; conditions: both isolate panels, Tables 18, 19
Method: (§1) The first assay used a panel of 88 contemporaneous urinary tract infection (UTI) isolates from North America, Europe, Latin America, and Asia. […] The second assay used a panel made up of a 300-strain clinical isolate panel (Table 14) with an additional 4 strains of interest. […] Four of the same SOC antibiotics tested against the 88-isolate panel were tested against this panel. The non-SOC antibiotics were not included due to their limited use in clinical settings, and nitrofurantoin was not included due to the low probability of resistance to this drug.
(§2) For both isolate panels, antibiotic concentrations tested were determined by using Clinical and Laboratory Standards Institute (CLSI) or European Committee on Antimicrobial Susceptibility Testing (EUCAST) breakpoints at concentrations that kill susceptible isolates but allow intermediate or resistant isolates to grow in the standard AST microdilution assay (Table 17).
(§3) The cocktail was then mixed with bacteria to obtain final titers of 1×10^6 plaque-forming unit (PFU)/mL/phage for the cocktail and 1×10^5 colony-forming unit (CFU)/mL for the bacteria, resulting in a multiplicity of infection (MOI) of 10 for each phage in a sample. […] Reactions were incubated at 37° C. with shaking and OD measurements were taken each hour for 20 hours.

[3] = test system: 300-strain clinical isolate panel with an additional 4 strains; experiment: Host range of CK618 and antibiotics alone and in combination, 304-isolate panel; type: cell-based, E. coli; conditions: antibiotic at concentration printed after name plus CK618
Method: as §1, §2, §3

| Molecule | bacterial burden in each tissue [1] | host range on MDR and beta-lactam-resistant strains compared with all strains (in words) [2] | host range performance on all strains (in words) [2] | Host range % on all strains (n = 304), Combination: Antibiotic + LBP-CK618 [3] |
| --- | --- | --- | --- | --- |
| O=C(O)c1cn(C2CC2)c2cc(N3CCNCC3)c(F)cc2c1=O [Ciprofloxacin] | significantly reduced bacterial burden to the LOD | – | – | – |
| C[C@@H]1O[C@@H]1P(=O)(O)O [Fosfomycin] | – | performed similarly regardless of antibiotic resistance status | strong activity across all strains | 97.0% |
| Trimethoprim/Sulfamethoxazole [TMP/SXT] | – | – | – | 81.9% |
